# From US10912780B2, “Heterocyclic compounds useful as anti-bacterial agents and method for production thereof” (Bugworks Research, Inc., priority 2017, dated 2021)
# Several values for one entry are separate records, joined by “and”; a condition that tells them apart may be missing. Equal values may be shown once.
# Columns and labels:
# E. coli topoisomerase IV = E. coli topoisomerase IV (Escherichia coli, UniProt P0AFI2+P20083); test: biochemical; details: decatenation assay; read-out: E. coli Topo IV IC50
# [1] = IV formulation solubility; type: physicochemical; details: 10% L-ascorbic acid in MilliQ water (IV formulation), aqueous with cosolvent or surfactant or cyclodextrin, IV formulation: 10% L-Ascorbic acid, 1N NaOH for pH adjustment, read-out: Solubility in 10% L-ascorbic acid in fresh MilliQ water(v/v), Final
# Method: Procedure: Weighed appropriate amount of the Example 15 to be tested and dissolved in 1 ml of the 10% ascorbic acid solution. (Vortex for a few seconds if the compound doesn't dissolve instantly). Sonicated the compound solution at room temperature for 5 minutes using a bath sonicator to obtain a visually clear solution. […]
# [2] = tested on: K. pneumoniae [ATCC13883]; test: Neutropenic thigh infection model in rat; type: in vivo; details: for Log 10 CFU/g thigh: individual animals
# Method: Example 15 was tested in rat thigh infection model following intravenous infusion of compound at doses of 100 mg/kg once, 30 mg/kg once daily over a period of 1 hr to assess its efficacy. This study was performed following all ethical practices as laid down in the guidelines for animal care (Registration number No. 1852/PO/Rc/S/16/CPCSEA). The study was approved by the Institutional Animals Ethics Committee (IAEC) of the test facility. The formulation used was 10% of L-ascorbic acid in fresh MilliQ water (w/v) with pH adjusted to ˜4.0 with 1N NaOH. On Day −4 (4 days prior to the desired date of infection), each rat was dosed with a single intra-peritoneal injection of cyclophosphamide equivalent to 150 mg/kg, and returned to its cage. On Day−1 (a day prior to infection) each rat received a dose equivalent to 100 mg/kg of Cyclophosphamide. This procedure ensured that animals will be neutropenic on day 0. […] The inoculum was serially diluted ten-fold in sterile CSDB broth and 0.05 ml of six dilutions were plated onto CSDA agar plates to determine the viable count (CFU/ml) of inoculum. All animals were divided into different groups as specified in the experimental design for each microorganism. All infections were conducted in a biological safety cabinet, with appropriate personnel protection. […] A gentle shaking/mixing of inoculum between two animals was followed for uniform distribution.
# Two hours post infection, animals in groups 4, 5 and 6 were administered intravenously with example 15, as a constant rate infusion (duration of infusion 1 h), under Ketamine 60 mg/kg IP+Xylazine 10 mg/kg IP anesthesia, at a dose volume of 10 ml/kg, at the rate of 0.16 ml/min. The dose levels of Example 15 were 10, 30 and 100 mg/kg. […] The total duration of the study was 10 h.
# Animals were sacrificed 10 hr post infection and thigh tissues were harvested to enumerate the bacterial CFU count. Thigh muscles were aseptically excised, weighed, and placed into 1 ml of sterile CSDB broth, and homogenized (Omni Tip (220 V hand held)). Serial ten-fold dilutions of the thigh homogenates were prepared in sterile lactose broth and 0.05 mL of four dilutions for each thigh was plated onto CSDA agar plates. Bacterial colonies were enumerated following overnight incubation at […]. Bacterial densities were estimated as Log 10 CFU/gram thigh. The Mean±SD Log 10 CFU/gram thigh was estimated in each group. Significant differences between group means and control will be analyzed by One way ANOVA, followed by a Dunnett's multiple comparison test, using Graphpad Prism at 95% confidence levels. A P value of <0.05 was considered as significant.
# [3] = In vivo pharmacokinetic studies in rats, 1 hr intravenous infusion; details: for AUC(0-t) / AUC(0-inf) / Cmax / Tmax / clearance / half-life / Vd: male, Sprague-Dawley, rat, iv; for Vd: male SD rats, 1 h IV infusion
# [4] = target: T1, human ether a go-go related gene (hERG) K+ channel (Homo sapiens, UniProt Q12809); test: hERG inhibition assay, QPatch HTX automated electrophysiology; type: cell-based; details: CHO cell line stably expressing hERG, whole-cell patch clamp, maximum test concentration 300 μM
# T1 construct: Chinese Hamster Ovary cell line stably expressing the full-length hERG potassium channel; expressed in transfected cells
# Method: The compounds were tested for inhibition of the human ether a go-go related gene (hERG) K+ channel using QPatch HTX automated electrophysiology.
# Compounds were solubilised to 100 mM in DMSO before dilution in HBPS to 300 μM.
# Electrophysiological recordings were made from a Chinese Hamster Ovary cell line stably expressing the full-length hERG potassium channel. Single cell ionic currents were measured in whole-cell patch clamp configuration at room temperature (21-23° C.) using the QPatch HTX platform (Sophion). Intracellular solution contained (mM): 120 KF, 20 KCl, 10 EGTA, 10 HEPES and was buffered to pH 7.3. […] Cells were clamped at a holding potential of −80 mV. […] This sweep was repeated 10 times at 10 s intervals. hERG currents were measured from the tail step and referenced to the holding current. Compounds were then incubated for 2 minutes prior to a second measurement of ion channel current using an identical pulse train.
# [5] = 10 mg/kg, i.v., 1 h infusion, neutropenic rat, 10 hr post infection
# [6] = 30 mg/kg, i.v., 1 h infusion, neutropenic rat, 10 hr post infection
# Chain of E. coli topoisomerase IV (P20083 whole entry): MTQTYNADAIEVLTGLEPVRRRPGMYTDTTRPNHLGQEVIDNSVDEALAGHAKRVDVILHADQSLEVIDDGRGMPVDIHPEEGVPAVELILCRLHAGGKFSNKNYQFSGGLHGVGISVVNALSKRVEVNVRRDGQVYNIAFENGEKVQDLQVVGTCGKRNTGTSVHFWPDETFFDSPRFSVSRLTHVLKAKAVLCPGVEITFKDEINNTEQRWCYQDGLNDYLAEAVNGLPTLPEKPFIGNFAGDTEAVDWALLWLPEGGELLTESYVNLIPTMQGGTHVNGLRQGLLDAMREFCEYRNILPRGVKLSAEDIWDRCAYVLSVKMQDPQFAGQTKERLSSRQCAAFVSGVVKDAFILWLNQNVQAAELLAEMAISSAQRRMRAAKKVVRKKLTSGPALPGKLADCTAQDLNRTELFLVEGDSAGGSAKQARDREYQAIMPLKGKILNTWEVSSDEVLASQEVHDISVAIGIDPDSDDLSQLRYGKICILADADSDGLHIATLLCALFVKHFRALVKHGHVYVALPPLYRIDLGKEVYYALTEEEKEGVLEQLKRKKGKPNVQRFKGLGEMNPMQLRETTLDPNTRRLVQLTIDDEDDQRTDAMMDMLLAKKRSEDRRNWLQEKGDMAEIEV
# Chain of E. coli topoisomerase IV (P0AFI2 whole entry): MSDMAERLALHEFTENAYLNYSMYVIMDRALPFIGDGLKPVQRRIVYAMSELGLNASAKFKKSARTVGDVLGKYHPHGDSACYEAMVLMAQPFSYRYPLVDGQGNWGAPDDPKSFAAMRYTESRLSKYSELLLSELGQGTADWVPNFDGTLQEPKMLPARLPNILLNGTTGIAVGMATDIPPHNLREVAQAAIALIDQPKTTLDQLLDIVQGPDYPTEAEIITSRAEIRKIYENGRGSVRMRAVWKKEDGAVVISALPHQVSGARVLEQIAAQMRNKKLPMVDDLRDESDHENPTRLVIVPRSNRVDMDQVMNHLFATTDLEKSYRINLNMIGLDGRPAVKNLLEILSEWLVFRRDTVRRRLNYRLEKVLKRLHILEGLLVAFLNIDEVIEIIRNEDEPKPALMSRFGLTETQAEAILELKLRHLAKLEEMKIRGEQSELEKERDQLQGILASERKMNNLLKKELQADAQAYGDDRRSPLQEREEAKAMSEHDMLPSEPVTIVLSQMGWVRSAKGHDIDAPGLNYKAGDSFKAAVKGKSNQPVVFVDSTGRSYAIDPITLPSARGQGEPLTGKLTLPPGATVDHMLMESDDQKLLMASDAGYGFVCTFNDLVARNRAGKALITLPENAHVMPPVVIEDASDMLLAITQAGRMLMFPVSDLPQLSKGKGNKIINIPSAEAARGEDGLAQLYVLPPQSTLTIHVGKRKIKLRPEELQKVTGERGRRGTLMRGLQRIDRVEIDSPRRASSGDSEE
# T1 sequence (Q12809 whole entry): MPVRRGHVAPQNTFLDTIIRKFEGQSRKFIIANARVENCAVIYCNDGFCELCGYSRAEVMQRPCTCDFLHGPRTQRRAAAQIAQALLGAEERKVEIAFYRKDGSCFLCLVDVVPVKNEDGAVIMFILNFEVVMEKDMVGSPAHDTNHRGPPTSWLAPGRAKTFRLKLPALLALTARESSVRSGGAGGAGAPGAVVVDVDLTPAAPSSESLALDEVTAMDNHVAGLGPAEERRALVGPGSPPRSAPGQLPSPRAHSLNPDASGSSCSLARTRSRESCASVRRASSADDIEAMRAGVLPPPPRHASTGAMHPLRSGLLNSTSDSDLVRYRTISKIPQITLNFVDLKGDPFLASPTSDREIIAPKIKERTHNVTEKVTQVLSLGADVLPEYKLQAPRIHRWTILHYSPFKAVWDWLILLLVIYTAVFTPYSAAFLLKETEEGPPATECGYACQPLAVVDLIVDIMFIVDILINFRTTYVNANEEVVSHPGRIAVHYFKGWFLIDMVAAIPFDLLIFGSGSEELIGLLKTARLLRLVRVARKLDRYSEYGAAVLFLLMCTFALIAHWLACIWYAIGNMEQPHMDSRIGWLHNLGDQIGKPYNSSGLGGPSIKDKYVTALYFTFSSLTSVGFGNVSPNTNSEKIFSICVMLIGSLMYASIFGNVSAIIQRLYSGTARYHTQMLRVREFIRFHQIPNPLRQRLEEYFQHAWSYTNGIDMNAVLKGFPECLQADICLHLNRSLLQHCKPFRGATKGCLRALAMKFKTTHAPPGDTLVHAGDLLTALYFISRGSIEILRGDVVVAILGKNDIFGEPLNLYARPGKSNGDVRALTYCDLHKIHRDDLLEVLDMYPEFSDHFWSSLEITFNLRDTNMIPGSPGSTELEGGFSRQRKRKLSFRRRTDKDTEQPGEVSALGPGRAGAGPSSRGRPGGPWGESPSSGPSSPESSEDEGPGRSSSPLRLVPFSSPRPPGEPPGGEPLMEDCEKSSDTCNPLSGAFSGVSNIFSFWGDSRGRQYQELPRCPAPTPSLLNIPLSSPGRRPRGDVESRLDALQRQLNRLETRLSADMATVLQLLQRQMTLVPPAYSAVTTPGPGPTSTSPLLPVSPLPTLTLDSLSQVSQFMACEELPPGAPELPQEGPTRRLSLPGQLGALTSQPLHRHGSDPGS
compound,measurement,setting,value
"Cn1c(=O)ccc2ccc(F)c(CCNC[C@H]3CN(c4cnc5c(n4)NC(=O)CO5)C(=O)O3)c21 [Example 15, (S)-6-(5-(((2-(7-fluoro-1-methyl-2-oxo-1,2-dihydroquinolin-8-yl)ethyl)amino)methyl)-2-oxooxazolidin-3-yl)-2H-pyrazino[2,3-b][1,4]oxazin-3(4H)-one]",IC50,E. coli topoisomerase IV,0.01 µM
same,solubility at 5 min,[1],25 mg/mL
same,MEAN ± SD (Log 10 CFU/g thigh),[2]; [5],2.91 ± 0.24 Log 10 CFU/g thigh
same,MEAN ± SD (Log 10 CFU/g thigh),[2]; [6],2.22 ± 0.50 Log 10 CFU/g thigh
same,Mean Log10CFU/g thigh reduction (wrt 2 h PI control: 4.72 Log10CFU/g thigh),[2]; [6],2.50 Log10CFU/g thigh
same,Log 10 CFU/g thigh,[2]; [5],3.18 Log 10 CFU/g thigh and 2.85 Log 10 CFU/g thigh and 2.71 Log 10 CFU/g thigh
same,Log 10 CFU/g thigh,[2]; [6],1.92 Log 10 CFU/g thigh and 1.94 Log 10 CFU/g thigh and 2.8 Log 10 CFU/g thigh
same,efficacy with respect to 2 h Post Infection (PI) control (in words),"[2]; rat thigh model, 10 and 30 mg/kg",significant dose dependent efficacy
same,efficacy versus standard drug (in words),"[2]; rat thigh model, similar dose (10 mg/kg)",comparable to standard drug ciprofloxacin
same,clearance (in words),"[3]; SD rats, 1 hr IV infusion",moderate
same,half life (in words),"[3]; SD rats, 1 hr IV infusion",short
same,volume of distribution (in words),"[3]; SD rats, 1 hr IV infusion",low
same,AUC and Cmax versus dose (in words),"[3]; SD rats, IV infusion at 5, 10, 30 & 100 mg/kg",Dose proportional increase
same,AUC(0-t),[3]; in vivo,104000 ± 7300 ng·h/mL
same,AUC(0-inf),"[3]; in vivo, 30 mg/kg",14700 ± 200 ng·h/mL
same,AUC(0-t),"[3]; in vivo, 30 mg/kg",14700 ± 200 ng·h/mL
same,Cmax,"[3]; in vivo, 30 mg/kg",15200 ± 2200 ng/mL
same,Tmax,"[3]; in vivo, 30 mg/kg",1 h
same,clearance,"[3]; in vivo, 30 mg/kg",34 mL/min/kg
same,half-life,"[3]; in vivo, 30 mg/kg",0.96 ± 0.02 h
same,Vd,"[3]; in vivo, 30 mg/kg, Vd",2.83 ± 0.09 L/kg
same,Vd,"[3]; in vivo, 30 mg/kg, Vss, 30 mg/kg",0.84 ± 0.06 L/kg
same,AUC(0-inf),"[3]; in vivo, 100 mg/kg",73700 ± 15300 ng·h/mL
same,AUC(0-t),"[3]; in vivo, 100 mg/kg",73700 ± 15300 ng·h/mL
same,Cmax,"[3]; in vivo, 100 mg/kg",62600 ± 6700 ng/mL
same,Tmax,"[3]; in vivo, 100 mg/kg",1 h
same,clearance,"[3]; in vivo, 100 mg/kg",23.3 mL/min/kg
same,half-life,"[3]; in vivo, 100 mg/kg",4.93 ± 0.5 h
same,Vd,"[3]; in vivo, 100 mg/kg, Vd",9.86 ± 1.68 L/kg
same,Vd,"[3]; in vivo, 100 mg/kg, Vss, 100 mg/kg",0.9 ± 0.05 L/kg
same,AUC(0-inf),"[3]; in vivo, 150 mg/kg",104000 ± 7300 ng·h/mL
same,Cmax,"[3]; in vivo, 150 mg/kg",101000 ± 146000 ng/mL
same,Tmax,"[3]; in vivo, 150 mg/kg",1 h
same,clearance,"[3]; in vivo, 150 mg/kg",24.2 mL/min/kg
same,half-life,"[3]; in vivo, 150 mg/kg",6.17 ± 0.42 h
same,Vd,"[3]; in vivo, 150 mg/kg, Vd",12.9 ± 1 L/kg
same,Vd,"[3]; in vivo, 150 mg/kg, Vss, 150 mg/kg",0.86 ± 0.04 L/kg
same,AUC(0-inf),"[3]; plasma, 5 mg/kg",1700 ± 50 ng·h/mL
same,AUC(0-t),"[3]; plasma, 5 mg/kg",1700 ± 50 ng·h/mL
same,Cmax,"[3]; plasma, 5 mg/kg",2400 ± 60 ng/mL
same,Tmax,"[3]; plasma, 5 mg/kg",0.77 ± 0.01 h
same,clearance,"[3]; plasma, 5 mg/kg",48.7 mL/min/kg
same,half-life,"[3]; plasma, 5 mg/kg",0.53 ± 0.03 h
same,Vd,"[3]; plasma, 5 mg/kg, Vd",2.21 ± 0.012 L/kg
same,Vd,"[3]; plasma, 5 mg/kg, Vss, 5 mg/kg",0.91 ± 0.05 L/kg
same,IC50,[4],131 µM
